Measurements reported in paper PMC10247892 (Biomedicine & Pharmacotherapy, 2023).

What was measured:
[1] = system: SARS-CoV-2 D614G; experiment: SARS-CoV-2 antiviral activity in a human nasal epithelial model; assay type: cell-based; conditions: HNE model
[2] = system: SARS-CoV-2; experiment: SARS-CoV-2 replication on Calu-3 cells; assay type: cell-based; conditions: non-cytotoxic concentrations
[3] = system: wildtype SARS-CoV-2 virus (D614G variant); parameters: species or system golden Syrian hamsters; conditions: hamster, in vivo

Molecule: CCC(CC)COC(=O)[C@H](C)N[P@](=O)(OC[C@H]1O[C@@](C#N)(c2ccc3c(N)ncnn23)[C@H](O)[C@@H]1O)Oc1ccccc1 [Remdesivir]
- Effect on viral replication (in words) ([1]; drug in the basal medium): completely blocked it

Molecule: OC[C@H]1O[C@@H]2O[C@H]3[C@H](O)[C@@H](O)[C@@H](O[C@H]4[C@H](O)[C@@H](O)[C@@H](O[C@H]5[C@H](O)[C@@H](O)[C@@H](O[C@H]6[C@H](O)[C@@H](O)[C@@H](O[C@H]7[C@H](O)[C@@H](O)[C@@H](O[C@H]8[C@H](O)[C@@H](O)[C@@H](O[C@H]1[C@H](O)[C@H]2O)O[C@@H]8CO)O[C@@H]7CO)O[C@@H]6CO)O[C@@H]5CO)O[C@@H]4CO)O[C@@H]3CO [β-CD, ß-Cyclodextrin]
- Inhibition of SARS-CoV-2 viral activity (in words) ([2]; D614G variant): inhibited the SARS-CoV-2 viral activity
- Inhibition of SARS-CoV-2 viral activity (in words) ([2]; Omicron BA.1 variant): inhibited the SARS-CoV-2 viral activity

Molecule: Methyl-β-cyclodextrin [MβCD]
- Prophylactic effect (in words) [3]: less potent prophylactic effect
- Reduction of viral replication ([1]; 2.5 mM constantly in the basal side): 11%
- Reduction of viral replication ([1]; 2.5 mM on the apical side (initial addition), 48 h pi): 74%
